# Laboratory results as given in US11773127B2, “Compounds and methods for treating bacterial infections” (Washington University, priority 2017, dated 2023).
# Where two headings read alike, the source gives them in different places.
# How the values were obtained:
# FmlHLD [1] = biological target: T1, FmlHLD (Escherichia coli, UniProt P77588); test: biochemical; format: binding, E. coli; settings: for IC50: IC50 (μM), Table 6, sulfonamides 3078-3090; for % Inhibition at [μM] [100]: compound at 100 μM
# T1 construct: 6xHis (C); made in house; host or cells: E. coli C600, periplasm, pTRC99a
# Summary of the method: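 Sialidase-treated bovine submaxillary mucin (ds-BSM) coated wells, BSA-blocked, then biotinylated FmlH^LD (20 μg/mL) with or without compound for 1 h at room temperature. Bound lectin detected by streptavidin-HRP/TMB, A450.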
# FmlHLD [2] = biological target: T1, FmlHLD; test: biochemical; format: binding, E. coli
# Excerpt: Bio-layer interferometry (BLI) was used to quantitate the binding affinity of select galactosides to FmlH.
# Thereafter, pins were dipped in PBS for 120 s and transferred to protein samples (varying concentration of FmlHLD or fixed concentration of FmlHLD with varying concentration of galactoside compounds) for association for 300-600 s.
# [3] = read-out: % Inhibition at [μM] [100], compound at 100 μM, inhibition of FmlHLD binding to ds-BSM
# [4] = read-out: PI100 (percent inhibition), galactoside at 100 μM, mean with standard error of the mean
# [5] = Kd (μM), inhibitory constants, fixed FmlHLD, varying galactoside in solution, immobilized ser-TF
# [6] = read-out: % Inhibition at [μM] [1], compound at 1 μM, inhibition of FmlHLD binding to ds-BSM
# [7] = read-out: % Inhibition at [μM] [10], compound at 10 μM, inhibition of FmlHLD binding to ds-BSM
# [8] = inhibition of FmlHLD binding to ds-BSM
# [9] = soluble compound at 100 μM (0.1 mM)
# T1 sequence (P77588 25-182): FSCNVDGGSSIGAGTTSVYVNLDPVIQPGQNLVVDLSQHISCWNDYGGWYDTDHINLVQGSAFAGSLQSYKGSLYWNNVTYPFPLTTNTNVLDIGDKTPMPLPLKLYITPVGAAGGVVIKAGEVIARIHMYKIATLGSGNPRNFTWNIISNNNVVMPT
smiles,measurement,setting,value
"CC(=O)N[C@@H]1[C@@H](O)[C@@H](O)[C@@H](CO)O[C@H]1O (stereo in doubt) [GalNAc, N-acetylgalactosamine, reference compound]",inhibition at 100 µM,FmlHLD [1]; [3],28.4%
same,inhibition at 100 µM,FmlHLD [1]; [4],28.5 ± 5.2%
same,"inhibition of FmlHLD binding to ds-BSM, in words",FmlHLD [1]; soluble compound at 1 mM,capable of inhibiting FmlHLD
same,Kd,FmlHLD [2]; [5],189 ± 22.9 µM
"O=[N+]([O-])c1ccccc1O[C@@H]1O[C@H](CO)[C@H](O)[C@H](O)[C@H]1O [4β (ONPG), reference compound]",Kd,FmlHLD [2]; [5],10.6 ± 4.6 µM
"OC[C@H]1O[C@@H](Oc2cc3c(O)cc(O)cc3[o+]c2-c2ccc(O)c(O)c2)[C@H](O)[C@@H](O)[C@H]1O [CG, reference compound]",inhibition at 100 µM,FmlHLD [1]; [3],28.8%
same,Kd,FmlHLD [2]; Kd,212 µM
CC(=O)N[C@H]1[C@H](Oc2ccccc2[N+](=O)[O-])O[C@H](CO)[C@H](O)[C@@H]1O [Compound 4β-NAc],PI10 (percent inhibition),"FmlHLD [1]; galactoside at 10 μM, mean with standard error of the mean, 10 µM",87.2 ± 1.7%
same,inhibition at 1 µM,"FmlHLD [1]; read-out: PI1 (percent inhibition), galactoside at 1 μM, mean with standard error of the mean",28.6 ± 4.5%
same,inhibition at 10 µM,"FmlHLD [1]; read-out: PI10 (percent inhibition), galactoside at 10 μM, mean with standard error of the mean",87%
same,inhibition at 100 µM,FmlHLD [1]; [4],99.4 ± 1.3%
same,Kd,FmlHLD [2]; [5],2.3 µM
"CC(=O)N[C@H]1[C@H](Oc2cccc([N+](=O)[O-])c2-c2cccc(NS(C)(=O)=O)c2)O[C@H](CO)[C@H](O)[C@@H]1O [Compound 3078, N-((2S,3R,4R,5R,6R)-4,5-dihydroxy-6-(hydroxymethyl)-2-((3′-(methylsulfonamido)-6-nitro-[1,1′-biphenyl]-2-yl)oxy)tetrahydro-2H-pyran-3-yl)acetamide]",IC50,FmlHLD [1],0.11 µM
"CC(=O)N[C@@H]1[C@H](Oc2cccc(C(=O)OCc3ccccc3)c2-c2cccc(NS(C)(=O)=O)c2)OC(CO)[C@H](O)[C@@H]1O (stereo partly drawn) [Compound 3081, Benzyl 6-(((2S,3S,4R,5R)-3-acetamido-4,5-dihydroxy-6-(hydroxymethyl)tetrahydro-2H-pyran-2-yl)oxy)-3′-(methylsulfonamido)-[1,1′-biphenyl]-2-carboxylate]",IC50,FmlHLD [1],0.18 µM
"CC(=O)N[C@@H]1[C@H](Oc2cccc(C(=O)O)c2-c2cccc(NS(C)(=O)=O)c2)OC(CO)[C@H](O)[C@@H]1O (stereo partly drawn) [Compound 3082, 6-(((2S,3S,4R,5R)-3-acetamido-4,5-dihydroxy-6-(hydroxymethyl)tetrahydro-2H-pyran-2-yl)oxy)-3′-(methylsulfonamido)-[1,1′-biphenyl]-2-carboxylic acid]",IC50,FmlHLD [1],0.13 µM
"COc1cccc(O[C@@H]2OC(CO)[C@H](O)[C@H](O)[C@@H]2NC(C)=O)c1-c1cccc(NS(C)(=O)=O)c1 (stereo partly drawn) [Compound 3083, N-((2S,3S,4R,5R)-4,5-dihydroxy-6-(hydroxymethyl)-2-((6-methoxy-3′-(methylsulfonamido)-[1,1′-biphenyl]-2-yl)oxy)tetrahydro-2H-pyran-3-yl)acetamide]",IC50,FmlHLD [1],0.15 µM
"CC(=O)N[C@H]1[C@H](Oc2ccc3ccccc3c2-c2cccc(NS(C)(=O)=O)c2)O[C@H](CO)[C@H](O)[C@@H]1O [Compound 3085, N-((2S,3R,4R,5R,6R)-4,5-dihydroxy-6-(hydroxymethyl)-2-((1-(3-(methylsulfonamido)phenyl)naphthalen-2-yl)oxy)tetrahydro-2H-pyran-3-yl)acetamide]",IC50,FmlHLD [1],0.18 µM
"CC(=O)N[C@@H]1[C@H](Oc2cccc(C)c2-c2cccc(NS(=O)(=O)N(C)C)c2)OC(CO)[C@H](O)[C@@H]1O (stereo partly drawn) [Compound 3087, N-((2S,3S,4R,5R)-2-((3′-((N,N-dimethylsulfamoyl)amino)-6-methyl-[1,1′-biphenyl]-2-yl)oxy)-4,5-dihydroxy-6-(hydroxymethyl)tetrahydro-2H-pyran-3-yl)acetamide]","inhibitory potency against FmlH, in words",FmlHLD [1]; ELISA-based competition assay,retain the same activity as the methyl sulfonamides
same,IC50,FmlHLD [1],0.13 µM
"Cc1cccc(O[C@@H]2O[C@H](CO)[C@H](O)[C@H](O)[C@H]2NS(C)(=O)=O)c1-c1cccc(NS(C)(=O)=O)c1 [Compound 3089, N-((2S,3R,4R,5R,6R)-4,5-dihydroxy-6-(hydroxymethyl)-2-((6-methyl-3′-(methylsulfonamido)-[1,1′-biphenyl]-2-yl)oxy)tetrahydro-2H-pyran-3-yl)methanesulfonamide]",IC50,FmlHLD [1],3.5 µM
"Cc1c(C)c2ccc(O[C@@H]3O[C@H](CO)[C@H](O)[C@H](O)[C@H]3O)cc2oc1=O [Compound D715-0293, reference compound]",inhibition at 1 µM,FmlHLD [1]; [6],10.2%
same,inhibition at 10 µM,FmlHLD [1]; [7],19.8%
same,inhibition at 100 µM,FmlHLD [1]; [3],89.2%
"CC1=CC(=O)Cc2c1cc(F)c(O[C@@H]1O[C@H](CO)[C@H](O)[C@H](O)[C@H]1O)c2F [DiF-MUG, reference compound]",inhibition at 10 µM,FmlHLD [1]; [7],0.85%
same,inhibition at 100 µM,FmlHLD [1]; [3],49.7%
OC[C@H]1O[C@@H](Oc2cccc3ccncc23)[C@H](O)[C@@H](O)[C@H]1O [EXW020a],inhibition at 100 µM,FmlHLD [1]; [3],15.2%
"CC(=O)N[C@H]1[C@@H](Oc2ccc([N+](=O)[O-])cc2)O[C@H](CO)[C@H](O)[C@@H]1O[C@@H]1O[C@H](CO)[C@H](O)[C@H](O)[C@H]1O [Gal-b1-3-PNPGalNAc, reference compound]",% Inhibition at [μM] [100],FmlHLD [1]; [8],15.28%
"CC(=O)N[C@H]1[C@H](Oc2ccc([N+](=O)[O-])cc2)O[C@H](CO)[C@@H](O)[C@@H]1O[C@@H]1O[C@H](CO)[C@H](O)[C@H](O)[C@H]1O [Gal-b1-3-PNPGlcNAc, reference compound]",% Inhibition at [μM] [100],FmlHLD [1]; [8],−3.60%
"O=[N+]([O-])c1ccc(O[C@@H]2O[C@H](CO[C@@H]3O[C@H](CO)[C@H](O)[C@H](O)[C@H]3O)[C@H](O)[C@H](O)[C@H]2O)cc1 [Gal-b1-6-PNPG, reference compound]",% Inhibition at [μM] [100],FmlHLD [1]; [8],19.41%
"CC(=O)N[C@@H]1[C@@H](O[C@@H]2O[C@H](CO)[C@H](O)[C@H](O)[C@H]2O)[C@H](O)[C@@H](CO)O[C@@H]1O [Gal-β1-GalNAc, reference compound]",Kd,FmlHLD [2]; [5],248 ± 20.3 µM
"CC(C)S[C@@H]1O[C@H](CO)[C@H](O)[C@H](O)[C@H]1O [IPTG, isopropyl β-thiogalactoside, reference compound]",inhibition at 100 µM,FmlHLD [1]; [3],23.7%
same,"inhibition of FmlHLD binding to ds-BSM, in words",FmlHLD [1]; [9],minor inhibitory activity
"Cc1cc(=O)oc2cc(O[C@@H]3O[C@H](CO)[C@H](O)[C@H](O)[C@H]3O)ccc12 [MUG, reference compound]",inhibition at 1 µM,FmlHLD [1]; [6],8.73%
same,inhibition at 10 µM,FmlHLD [1]; [7],19.7%
same,inhibition at 100 µM,FmlHLD [1]; [3],85.2%
"O=c1c(O[C@@H]2O[C@H](CO)[C@H](O)[C@H](O)[C@H]2O)c(-c2cc(O)c(O)c(O)c2)oc2cc(O)cc(O)c12 [MyrG, reference compound]",inhibition at 100 µM,FmlHLD [1]; [3],10.8%
"O=[N+]([O-])c1ccccc1O[C@@H]1O[C@H](CO)[C@H](O)[C@H](O)[C@H]1O [ONPG, o-nitrophenyl β-galactoside, reference compound]",inhibition at 1 µM,FmlHLD [1]; [6],14.2%
same,inhibition at 10 µM,FmlHLD [1]; [7],31.1%
same,inhibition at 100 µM,FmlHLD [1]; [3],93%
same,"inhibition of FmlHLD binding to ds-BSM, in words",FmlHLD [1]; [9],"more effectively than Gal, GalNAc, or TF"
"O=[N+]([O-])c1ccccc1O[C@@H]1O[C@H](COP(=O)(O)O)[C@H](O)[C@H](O)[C@H]1O [ONPG-6P, reference compound]",% Inhibition at [μM] [100],FmlHLD [1]; [8],1.31%
CC(=O)N[C@H]1[C@H](Oc2ccccc2[N+](=O)[O-])O[C@H](CO)[C@H](O)[C@@H]1O [ONPG-NAc],inhibition at 1 µM,FmlHLD [1]; [6],22.4%
same,inhibition at 10 µM,FmlHLD [1]; [7],87.2%
same,inhibition at 100 µM,FmlHLD [1]; [3],99.4%
"O=C(O)C1OC(Oc2ccc([N+](=O)[O-])cc2)C(O)C(O)C1O (stereo not shown) [PNP Galacturonide, reference compound]",% Inhibition at [μM] [100],FmlHLD [1]; [8],−2.40%
"CC(=O)N[C@H]1[C@@H](Oc2ccc([N+](=O)[O-])cc2)O[C@H](CO)[C@H](O)[C@@H]1O [PNP-aGalNAc, reference compound]",% Inhibition at [μM] [10],"FmlHLD [1]; compound at 10 μM, inhibition of FmlHLD binding to ds-BSM",6.29%
same,% Inhibition at [μM] [100],FmlHLD [1]; [8],82.04%
"O=[N+]([O-])c1ccc(S[C@@H]2O[C@H](CO)[C@H](O)[C@H](O)[C@H]2O)cc1 [PNPTG, reference compound]",inhibition at 10 µM,FmlHLD [1]; [7],17%
same,inhibition at 100 µM,FmlHLD [1]; [3],72.5%
"OC[C@H]1O[C@@H](Oc2cc3c(O)cc(O)cc3[o+]c2-c2ccc(O)cc2)[C@H](O)[C@@H](O)[C@H]1O [PelG, reference compound]",inhibition at 100 µM,FmlHLD [1]; [3],0.74%
"COc1cc(-c2[o+]c3cc(O)cc(O)c3cc2O[C@@H]2O[C@H](CO)[C@H](O)[C@H](O)[C@H]2O)ccc1O [PeoG, reference compound]",inhibition at 100 µM,FmlHLD [1]; [3],3.64%
"OC[C@H]1O[C@@H](Oc2ccccc2)[C@H](O)[C@@H](O)[C@H]1O [Phenyl Gal, reference compound]",inhibition at 10 µM,FmlHLD [1]; [7],15.5%
same,inhibition at 100 µM,FmlHLD [1]; [3],76.9%
"O=c1ccc2nc3ccc(O[C@@H]4O[C@H](CO)[C@H](O)[C@H](O)[C@H]4O)cc3oc-2c1 [Resorufin Gal, reference compound]",inhibition at 10 µM,FmlHLD [1]; [7],24%
same,inhibition at 100 µM,FmlHLD [1]; [3],80.4%
"OC[C@H]1O[C@@H](Oc2c[nH]c3cc(Cl)ccc23)[C@H](O)[C@@H](O)[C@H]1O [Salmon Gal, reference compound]",inhibition at 100 µM,FmlHLD [1]; [3],41.2%
"O=[N+]([O-])c1ccc(O[C@@H]2O[C@H](CO)[C@H](O)[C@H](O)[C@H]2O)cc1 [p-Nitrophenyl Gal, reference compound]",inhibition at 10 µM,FmlHLD [1]; [7],13.7%
same,inhibition at 100 µM,FmlHLD [1]; [3],78.1%
